The target of one experiment is T1, PKC epsilon (Homo sapiens, UniProt Q02156).
T1 construct: purchased Invitrogen P2282
T1 sequence (Q02156 1-737): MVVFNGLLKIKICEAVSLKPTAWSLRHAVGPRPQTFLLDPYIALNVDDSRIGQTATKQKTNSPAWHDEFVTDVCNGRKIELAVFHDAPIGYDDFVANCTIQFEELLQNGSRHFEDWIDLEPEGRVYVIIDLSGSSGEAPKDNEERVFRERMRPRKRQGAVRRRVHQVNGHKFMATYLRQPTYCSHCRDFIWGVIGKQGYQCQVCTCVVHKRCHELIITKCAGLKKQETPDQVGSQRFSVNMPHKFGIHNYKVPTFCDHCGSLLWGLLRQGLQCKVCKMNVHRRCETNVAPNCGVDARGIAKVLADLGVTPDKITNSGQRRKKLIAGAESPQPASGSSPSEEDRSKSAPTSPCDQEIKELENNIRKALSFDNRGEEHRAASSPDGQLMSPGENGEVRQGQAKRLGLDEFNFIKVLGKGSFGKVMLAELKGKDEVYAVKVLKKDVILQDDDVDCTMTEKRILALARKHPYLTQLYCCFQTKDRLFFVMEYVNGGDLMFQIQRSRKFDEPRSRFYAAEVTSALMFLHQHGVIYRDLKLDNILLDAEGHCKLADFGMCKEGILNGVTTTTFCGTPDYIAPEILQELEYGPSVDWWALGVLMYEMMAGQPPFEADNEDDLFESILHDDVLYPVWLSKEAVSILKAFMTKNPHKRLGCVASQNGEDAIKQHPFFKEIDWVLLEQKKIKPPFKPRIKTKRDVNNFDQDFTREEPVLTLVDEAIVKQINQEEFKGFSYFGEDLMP
Put plainly: Biochemical assay for PKC epsilon (fluorescence polarization, Protein Kinase C Assay Kit, Red). As to conditions: read-out: IC50 μM PKCε. Put shortly: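 PKC epsilon at 10 ng/ml final was preincubated 30 min at room temperature with compound in HEPES pH 7.4 with DTT and Triton X-100. ATP/protein substrate was then added in buffer with MgCl2 and CaCl2 for 80 min. The reaction was stopped with EDTA, phosphorylation was detected by fluorescence polarization with rhodamine tracer and anti-phosphoserine antibody, and IC50 values came from curve fits.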

A further experiment has as its target T2, human ROCKα/ROCKII mix (Homo sapiens, UniProt O75116).
T2 construct: purchased Upstate Biotechnology 14-451
Description: Biochemical assay for ROCK (fluorescence polarization, ROCK IMAP Kit).

[1] abbreviates: compounds of Formula XIV, Table 3.
Where [2] appears, read: Table 2, compounds of Formula XIII.

IC50 data for 30 molecules are collected here from patent US20100168102A9, “Amide Derivatives as Kinase Inhibitors” (Devgen NV, priority 2005, published 2010).

Like-named read-outs stand apart in the source and are kept apart here.

T2 sequence (O75116 11-552 limits assumed): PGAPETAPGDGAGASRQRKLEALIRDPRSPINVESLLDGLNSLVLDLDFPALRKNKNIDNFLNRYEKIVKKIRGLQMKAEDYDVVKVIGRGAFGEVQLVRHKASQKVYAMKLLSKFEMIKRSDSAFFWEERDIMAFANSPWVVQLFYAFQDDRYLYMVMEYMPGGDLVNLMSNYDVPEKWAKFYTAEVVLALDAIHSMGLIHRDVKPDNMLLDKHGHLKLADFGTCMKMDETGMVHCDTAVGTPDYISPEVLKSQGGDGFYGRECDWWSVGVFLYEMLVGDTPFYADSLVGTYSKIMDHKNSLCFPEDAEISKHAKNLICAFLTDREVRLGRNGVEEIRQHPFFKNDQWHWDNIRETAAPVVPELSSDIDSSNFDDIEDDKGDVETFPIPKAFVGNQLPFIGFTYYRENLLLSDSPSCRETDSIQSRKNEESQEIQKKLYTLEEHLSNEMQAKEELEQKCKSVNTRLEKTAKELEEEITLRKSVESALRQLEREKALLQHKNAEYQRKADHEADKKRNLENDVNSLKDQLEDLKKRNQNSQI

As a reminder, the IC50 is the concentration at which inhibition is half-maximal. Regarding `NC(c1ccc(C(=O)Nc2ccncc2)cc1)C1CCCN1C(=O)C1(c2ccc(Cl)cc2)CCC1` (stereo not drawn) [Compound 565, 4-(Amino-{1-[1-(4-chloro-phenyl)-cyclobutanecarbonyl]-pyrrolidin-2-yl}-methyl)-N-pyridin-4-yl-benzamide], the IC50 on PKC epsilon and against human ROCKα/ROCKII mix was 0.5 to 5 µM throughout.
Consider “4-[1-Amino-2-(benzyl- phenethyl-carbamoyl)-ethyl]- N-pyridin-4-yl-benzamide [Compound 226]”, for which the IC50 on PKC epsilon (setting [1]) lay in the range of 0.5 to 5 µM; on human ROCKα/ROCKII mix (setting [1]) it was 0.05 to 0.5 µM.
Consider `NC(CC(=O)NC(c1ccccc1)c1ccccc1)c1ccc(C(=O)Nc2ccncc2)cc1` (stereo not drawn) [Compound 225, 4-[1-Amino-2-(benzhydryl-carbamoyl)-ethyl]-N-pyridin-4-yl-benzamide], for which the IC50 fell in the range of 0.5 to 5 µM on PKC epsilon (setting [1]) and 0.05 to 0.5 µM against human ROCKα/ROCKII mix (setting [1]).
In the case of “4-(1-Amino-2-{[2-(4- hydroxy-3-nitro-phenyl)- acetyl]-methyl- amino]-ethyl)- N-pyridin-4-yl-benzamide [Compound 439]”, the values for the IC50 at PKC epsilon and against human ROCKα/ROCKII mix were 5 to 50 µM and 0.05 to 0.5 µM, respectively.
Regarding `CCSCC(=O)NCC(N)c1ccc(C(=O)Nc2ccncc2)cc1` (stereo not drawn) [Compound 63, 4-[1-amino-2-(2-ethylsulfanyl-acetylamino)-ethyl]-N-pyridin-4-yl-benzamide], the IC50 fell in the range of 0.5 to 5 µM at PKC epsilon (setting [2]) and 0.05 to 0.5 µM against human ROCKα/ROCKII mix (setting [2]).
For `COc1ccc(CC(=O)N(C)CC(N)c2ccc(C(=O)Nc3ccncc3)cc2)cc1` (stereo not drawn) [Compound 427, 4-(1-Amino-2-{[2-(4-methoxy-phenyl)-acetyl]-methyl-amino}-ethyl)-N-pyridin-4-yl-benzamide], the IC50 at PKC epsilon is 5 to 50 µM; against human ROCKα/ROCKII mix, 0.05 to 0.5 µM.
Consider `CC(C)(C(=O)NCC(N)c1ccc(C(=O)Nc2ccncc2)cc1)c1ccsc1` (stereo not drawn) [Compound 346, 4-[1-Amino-2-(2-methyl-2-thiophen-3-yl-propionylamino)-ethyl]-N-pyridin-4-yl-benzamide], for which the IC50 on PKC epsilon (setting [2]) and against human ROCKα/ROCKII mix (setting [2]) was 0.05 to 0.5 µM throughout.
For `NC(CNC(=O)Cc1ccc2ccccc2c1)c1ccc(C(=O)Nc2ccncc2)cc1` (stereo not drawn) [Compound 135, 4-[1-Amino-2-(2-naphtalen-2-yl-acetylamino)-ethyl]-N-pyridin-4-yl-bennzamide], the IC50 lay within 5 to 50 µM at PKC epsilon (setting [2]) and 0.5 to 5 µM on human ROCKα/ROCKII mix (setting [2]).
Take `NC(CC(=O)NCCc1ccccc1F)c1ccc(C(=O)Nc2ccncc2)cc1` (stereo not drawn) [Compound 305, 4-{1-Amino-2-[2-(2-fluoro-phenyl)-ethylcarbamoyl]-ethyl}-N-pyridin-4-yl-benzamide]: the IC50 on PKC epsilon (setting [1]) lay in the range of 0.5 to 5 µM; against human ROCKα/ROCKII mix (setting [1]), 0.05 to 0.5 µM.
`NC(CC(=O)NC(c1ccccc1)c1ccc(Cl)cc1)c1ccc(C(=O)Nc2ccncc2)cc1` (stereo not drawn) [Compound 255, 4-(1-Amino-2-{[(4-chloro-phenyl)-phenyl-methyl]-carbamoyl}-ethyl)-N-pyridin-4-yl-benzamide]: the IC50 on PKC epsilon (setting [1]) was 0.5 to 5 µM; on human ROCKα/ROCKII mix (setting [1]) it was 0.05 to 0.5 µM.
As for “Indan-1-carboxylic acid {2- amino-2-[4-(pyridin-4- ylcarbamoyl)-phenyl]-ethyl}- methyl-amide [Compound 507]”, the IC50 at PKC epsilon was in the range of 5 to 50 µM; against human ROCKα/ROCKII mix, 0.5 to 5 µM.
In the case of `NC(CNC(=O)c1cccc(S(=O)(=O)Nc2ccccc2)c1)c1ccc(C(=O)Nc2ccncc2)cc1` (stereo not drawn) [Compound 99, 4-[1-amino-2-(3-phenylsulfamoyl-benzoylamino)-ethyl]-N-pyridin-4-yl-benzamide], the IC50 at PKC epsilon (setting [2]) and against human ROCKα/ROCKII mix (setting [2]) was 0.5 to 5 µM throughout.
Regarding `NC(CC(=O)NCc1ccc(Br)cc1F)c1ccc(C(=O)Nc2ccncc2)cc1` (stereo not drawn) [Compound 262, 4-[1-Amino-2-(4-bromo-2-fluoro-benzylcarbamoyl)-ethyl]-N-pyridin-4-yl-benzamide], the IC50 on PKC epsilon (setting [1]) fell in the range of 0.5 to 5 µM; on human ROCKα/ROCKII mix (setting [1]) it was 0.05 to 0.5 µM.
Take `CS(=O)(=O)c1ccc(CNC(=O)CC(N)c2ccc(C(=O)Nc3ccncc3)cc2)cc1` (stereo not drawn) [Compound 275, 4-[1-Amino-2-(4-methanesulfonyl-benzylcarbamoyl)-ethyl]-N-pyridin-4-yl-benzamide]: the IC50 on PKC epsilon (setting [1]) lay within 0.5 to 5 µM; against human ROCKα/ROCKII mix (setting [1]), 0.05 to 0.5 µM.
For `NC(CC(=O)NC1CCN(Cc2ccccc2)CC1)c1ccc(C(=O)Nc2ccncc2)cc1` (stereo not drawn) [Compound 200, 4-[1-amino-2-(1-benzyl-piperidin-4-ylcarbamoyl)-ethyl]-N-pyridin-4-yl-benzamide], the values for the IC50 on PKC epsilon (setting [1]) and against human ROCKα/ROCKII mix (setting [1]) were 0.5 to 5 µM and 0.05 to 0.5 µM, respectively.
As to “4-[1-Amino-2-(2-ethoxy- benzylcarbamoyl)-ethyl]- N-pyridin-4-yl-benzamide [Compound 237]”, the half-inhibitory concentration (IC50) lay in the range of 0.5 to 5 µM on PKC epsilon (setting [1]) and 0.05 to 0.5 µM at human ROCKα/ROCKII mix (setting [1]).
Turning to `NC(CC(=O)NCc1ccc(F)cc1)c1ccc(C(=O)Nc2ccncc2)cc1` (stereo not drawn) [Compound 258, 4-[1-Amino-2-(4-fluoro-benzylcarbamoyl)-ethyl]-N-pyridin-4-yl-benzamide], the IC50 on PKC epsilon (setting [1]) and on human ROCKα/ROCKII mix (setting [1]) was 0.05 to 0.5 µM throughout.
Regarding `NC(c1ccc(C(=O)Nc2ccncc2)cc1)C1CCCN1C(=O)Cc1cc(F)cc(F)c1` (stereo not drawn) [Compound 583, 4-(Amino-{1-[2-(3,5-difluoro-phenyl)-acetyl]-pyrrolidin-2-yl}-methyl)-N-pyridin-4-yl-benzamide], the IC50 lay within 5 to 50 µM on PKC epsilon and 0.5 to 5 µM at human ROCKα/ROCKII mix.
Regarding `NC(CNC(=O)C1(c2ccc(Cl)c(Cl)c2)CCC1)c1ccc(C(=O)Nc2ccncc2)cc1` (stereo not drawn) [Compound 381, 4-(1-Amino-2-{[1-(3,4-dichloro-phenyl)-cyclobutanecarbonyl]-amino}-ethyl)-N-pyridin-4-yl-benzamide], the IC50 on PKC epsilon (setting [2]) and against human ROCKα/ROCKII mix (setting [2]) was 0.05 to 0.5 µM throughout.
In the case of `NC(CNC(=O)c1ccc(-c2ccccc2)cc1)c1ccc(C(=O)Nc2ccncc2)cc1` (stereo not drawn) [Compound 88, Biphenyl-4-carboxylic acid {2-amino-2-[4-(pyridin-4-ylcarbamoyl)-phenyl]-ethyl}-amide], the IC50 at PKC epsilon (setting [2]) lay within 5 to 50 µM; against human ROCKα/ROCKII mix (setting [2]), 0.5 to 5 µM.
For `CN(CC(N)c1ccc(C(=O)Nc2ccncc2)cc1)C(=O)Cc1ccc(Cl)cc1F` (stereo not drawn) [Compound 502, 4-(1-Amino-2-{[2-(4-chloro-2-fluoro-phenyl)-acetyl]-methyl-amino}-ethyl)-N-pyridin-4-yl-benzamide], the IC50 at PKC epsilon was in the range of 5 to 50 µM; on human ROCKα/ROCKII mix, 0.5 to 5 µM.
Regarding `CN(CC(N)c1ccc(C(=O)Nc2ccncc2)cc1)C(=O)Cc1cccc(Cl)c1F` (stereo not drawn) [Compound 501, 4-(1-Amino-2-{[2-(3-chloro-2-fluoro-phenyl)-acetyl]-methyl-amino}-ethyl)-N-pyridin-4-yl-benzamide], the IC50 was 5 to 50 µM on PKC epsilon and 0.5 to 5 µM against human ROCKα/ROCKII mix.
On the same counts, the results for `CN(CC(N)c1ccc(C(=O)Nc2ccncc2)cc1)C(=O)C1(c2ccc(Cl)cc2Cl)CC1` (stereo not drawn) [Compound 495, 4-(1-Amino-2-{[1-(2,4-dichloro-phenyl)-cyclopropanecarbonyl]-methyl-amino}-ethyl)-N-pyridin-4-yl-benzamide] are 5 to 50 µM and 0.5 to 5 µM.
Regarding `NC(CC(=O)NCCc1ccc(F)cc1)c1ccc(C(=O)Nc2ccncc2)cc1` (stereo not drawn) [Compound 307, 4-{1-amino-2-[2-(4-fluoro-phenyl)-ethylcarbamoyl]-ethyl}-N-pyridin-4-yl-benzamide], the IC50 at PKC epsilon (setting [1]) and at human ROCKα/ROCKII mix (setting [1]) was 0.05 to 0.5 µM in each case.
For the molecule “4-(1-amino-2- cyclohexylcarbamoyl-ethyl)- N-pyridin-4-yl-benzamide [Compound 172]”, the IC50 was 0.5 to 5 µM at PKC epsilon (setting [1]) and 0.05 to 0.5 µM at human ROCKα/ROCKII mix (setting [1]).
For the molecule “4-{1-amino-2-[2-(4- trifluoromethyl-phenyl)- ethylcarbamoyl]-ethyl}-N- pyridin-4-yl-benzamide [Compound 309]”, the IC50 lay in the range of 0.5 to 5 µM at PKC epsilon (setting [1]) and 0.05 to 0.5 µM on human ROCKα/ROCKII mix (setting [1]).
Turning to `NC(c1ccc(C(=O)Nc2ccncc2)cc1)C1CCCN1C(=O)Cc1ccc2ccccc2c1` (stereo not drawn) [Compound 535, 4-{Amino-[1-(2-naphthalen-2-yl-acetyl)-pyrrolidin-2-yl]-methyl}-N-pyridin-4-yl-benzamide], the IC50 at PKC epsilon and against human ROCKα/ROCKII mix was 0.5 to 5 µM throughout.
“4-(1-Amino-2- phenethylcarbamoyl-ethyl)- N-pyridin-4-yl-benzamide [Compound 281]”: the figures for the IC50 on PKC epsilon (setting [1]) and against human ROCKα/ROCKII mix (setting [1]) were 0.5 to 5 µM and 0.05 to 0.5 µM, respectively.
The matching figures for `NC(CC(=O)NC1CCCc2ccccc21)c1ccc(C(=O)Nc2ccncc2)cc1` (single isomer, unassigned) [Compound 222]: 5 to 50 µM and 0.05 to 0.5 µM.
With `NC(CC(=O)NCc1cccc([N+](=O)[O-])c1)c1ccc(C(=O)Nc2ccncc2)cc1` (stereo not drawn) [Compound 272, 4-[1-Amino-2-(3-nitro-benzylcarbamoyl)-ethyl]-N-pyridin-4-yl-benzamide], the results for the IC50 on PKC epsilon (setting [1]) and at human ROCKα/ROCKII mix (setting [1]) were 0.5 to 5 µM and 0.05 to 0.5 µM, respectively.
